# Data from US20140039044A1, “Hydroxylated Polymethoxyflavone Compositions” (WLLGEN, INC., priority 2006, published 2014).
# Read-outs that look alike come from different tables or passages of the source.
# How the values were obtained:
# Assay type in all cases: cell-based, human
# [1] = test system: HT-29 cells; test: Cell cycle distribution by flow cytometry; conditions: for Cell Cycle Distribution G0/G1 / Cell Cycle Distribution G2/M / Cell Cycle Distribution S: 24 h
# Procedure: (§1) The human cancer cells (2×10^5) were cultured in 60-mm Petri dishes and incubated for 24 h. After treated with test compounds for 24 h, the cells were then harvested, washed with PBS resuspended in 200 μL of PBS, and fixed in 800 μL of iced 100% ethanol at −20° C. After being left to stand overnight, the cell pellets were collected by centrifugation, resuspended in 1 mL of hypotonic buffer (0.5% Triton X-100 in PBS and 0.5 μg/mL RNase) and incubated at 37° C. for 30 min. Next, 1 mL of propidium iodide solution (50 μg/mL) was added, and the mixture was allowed to stand on ice for 30 min. Fluorescence emitted from the propidium iodide-DNA complex was quantitated after excitation of the fluorescent dye by FACScan cytometry (Becton Dickinson, San Jose, Calif.).
# (§2) Compounds A-K were evaluated in terms of their effects in arresting cell cycle progression by observing cell cycle phase distribution in cells treated with the compounds. Cells were treated with 5, 10, 25, 50, and 100 μM of one of compound A-K or DMSO (control) for 24 h and subjected to flow cytometric analysis after staining their DNA, as described above.
# (§3) Similar cell cycle phase distribution studies were performed in AGS, COLO205, and HT-29 cells in response to individual PMFs, with results reported in Tables 11, 12 and 13, respectively.
# [2] = test system: HL-60 cells; test: Cell cycle distribution by flow cytometry; conditions: 24 h; for Cell Cycle Distribution G0/G1 / Cell Cycle Distribution G2/M / Cell Cycle Distribution S: Table 10
# Procedure: as §1
# (§4) The effects of the hydrolyzed PMF-enriched compositions, nobiletin and 70% PMF OPE on cell cycle distribution were studied, following the procedures described in Section 8.4. Results for cell cycle distribution in HL-60 cells, COLO205 cells and AGS cells are provided in Table 5, Table 6 and Table 7, respectively. […] In HL-60 cells, G2/M arrest predominated in cells treated with 6N PMF concentrations ≧5 μM and with 1N PMF concentrations ≧25 μM.
# as §2
# [3] = test system: COLO205 cells; test: Cell cycle distribution by flow cytometry; conditions: COLO205 cells, 24 h, Table 12
# Procedure: as §1, §4, §2, §3
# [4] = test system: AGS cells; test: Cell cycle distribution by flow cytometry; conditions: 24 h, Table 11
# Procedure: as §1, §4, §2, §3
# [5] = test system: HL-60 cells; test: Apoptotic ratio by propidium iodide flow cytometry (AC50); conditions: HL-60 cells, read-out: Apoptosis-inducing AC50
# Procedure: as §1
# (§5) 1 N PMF and 6 N PMF compositions containing hydroxylated PMFs, prepared as described in Section 8.3 above, 70% PMF OPE and 5,6,7,8,3′,4′-hexamethoxyflavone (nobiletin) were tested for antiproliferative activity and apoptosis-inducing activity in HL-60, AGS and COLO205 cells as described in Section 8.4 above. Antiproliferative and apoptosis-inducing activities were derived as IC50 values and AC50, values, respectively, where AC50 is the concentration required for 50% apoptosis.
# (§6) The PMF compounds were assayed in vitro for cell growth inhibition and for their ability to induce apoptosis in various human cancer cells, including HL-60, AGS, COLO 205, and HT-29 cells, using methods described in Section 8.4 above. Antiproliferative (IC50) and apoptosis-inducing activity (AC50) of PMFs in the HL-60, AGS, COLO 205, and HT-29 cells are reported in Table 9, where *P<0.05, **P<0.01 and ***P<0.001 indicate statistically significant differences from the control group.
# [6] = test system: COLO205 cells; test: as above; conditions: COLO205 cells, read-out: Apoptosis-inducing AC50
# Procedure: as §1, §5, §6
# [7] = test system: AGS cells; test: as above; conditions: AGS cells, read-out: Apoptosis-inducing AC50
# Procedure: as §1, §5, §6
smiles,measurement,setting,value
"COc1cc(-c2cc(=O)c3c(O)c(OC)c(OC)c(OC)c3o2)cc(OC)c1OC [E, 5-hydroxy-6,7,8,3′,4′,5′-hexamethoxyflavone]",Cell Cycle Distribution G0/G1,[1]; 5 μM,57.96 ± 0.21
same,Cell Cycle Distribution G2/M,[1]; 5 μM,10.19 ± 0.07
same,Cell Cycle Distribution S,[1]; 5 μM,31.85 ± 0.14
same,Cell Cycle Distribution G0/G1,[1]; 10 μM,57.86 ± 0.31
same,Cell Cycle Distribution G2/M,[1]; 10 μM,10.01 ± 0.46
same,Cell Cycle Distribution S,[1]; 10 μM,32.14 ± 0.78
same,Cell Cycle Distribution G0/G1,[1]; 25 μM,59.20 ± 0.06
same,Cell Cycle Distribution G2/M,[1]; 25 μM,9.63 ± 0.69
same,Cell Cycle Distribution S,[1]; 25 μM,31.18 ± 0.74
same,Cell Cycle Distribution G0/G1,[1]; 50 μM,58.95 ± 0.95
same,Cell Cycle Distribution G2/M,[1]; 50 μM,9.26 ± 0.16
same,Cell Cycle Distribution S,[1]; 50 μM,31.79 ± 1.12
same,Cell Cycle Distribution G0/G1,[1]; 100 μM,61.79 ± 1.47
same,Cell Cycle Distribution G2/M,[1]; 100 μM,8.79 ± 1.23
same,Cell Cycle Distribution S,[1]; 100 μM,29.42 ± 0.24
same,Cell Cycle Distribution G0/G1,[2]; 5 μM,40.16 ± 1.10
same,Cell Cycle Distribution G2/M,[2]; 5 μM,6.01 ± 1.64
same,Cell Cycle Distribution S,[2]; 5 μM,53.83 ± 0.54
same,Cell Cycle Distribution G0/G1,[2]; 10 μM,40.43 ± 2.14
same,Cell Cycle Distribution G2/M,[2]; 10 μM,5.57 ± 1.17
same,Cell Cycle Distribution S,[2]; 10 μM,54.01 ± 0.98
same,Cell Cycle Distribution G0/G1,[2]; 25 μM,41.35 ± 2.50
same,Cell Cycle Distribution G2/M,[2]; 25 μM,6.27 ± 1.05
same,Cell Cycle Distribution S,[2]; 25 μM,52.38 ± 1.46
same,Cell Cycle Distribution G0/G1,[2]; 50 μM,37.64 ± 1.09
same,Cell Cycle Distribution G2/M,[2]; 50 μM,7.73 ± 0.62
same,Cell Cycle Distribution S,[2]; 50 μM,54.64 ± 0.49
same,Cell Cycle Distribution G0/G1,[2]; 100 μM,42.95 ± 0.11
same,Cell Cycle Distribution G2/M,[2]; 100 μM,7.27 ± 0.84
same,Cell Cycle Distribution S,[2]; 100 μM,49.79 ± 0.95
same,Cell Cycle Distribution G0/G1,[3]; 5 μM,67.66 ± 0.19
same,Cell Cycle Distribution G2/M,[3]; 5 μM,8.75 ± 0.17
same,Cell Cycle Distribution S,[3]; 5 μM,23.60 ± 0.03
same,Cell Cycle Distribution G0/G1,[3]; 10 μM,67.48 ± 0.59
same,Cell Cycle Distribution G2/M,[3]; 10 μM,8.29 ± 0.48
same,Cell Cycle Distribution S,[3]; 10 μM,24.24 ± 0.11
same,Cell Cycle Distribution G0/G1,[3]; 25 μM,67.40 ± 0.49
same,Cell Cycle Distribution G2/M,[3]; 25 μM,7.59 ± 1.18
same,Cell Cycle Distribution S,[3]; 25 μM,25.02 ± 0.70
same,Cell Cycle Distribution G0/G1,[3]; 50 μM,69.49 ± 2.62
same,Cell Cycle Distribution G2/M,[3]; 50 μM,6.59 ± 0.82
same,Cell Cycle Distribution S,[3]; 50 μM,23.93 ± 1.80
same,Cell Cycle Distribution G0/G1,[3]; 100 μM,69.99 ± 0.89
same,Cell Cycle Distribution G2/M,[3]; 100 μM,5.52 ± 0.90
same,Cell Cycle Distribution S,[3]; 100 μM,24.50 ± 0.00
same,Cell Cycle Distribution G0/G1,[4]; 5 μM,55.70 ± 0.14
same,Cell Cycle Distribution G2/M,[4]; 5 μM,15.88 ± 0.89
same,Cell Cycle Distribution S,[4]; 5 μM,28.42 ± 0.75
same,Cell Cycle Distribution G0/G1,[4]; 10 μM,56.96 ± 3.14
same,Cell Cycle Distribution G2/M,[4]; 10 μM,16.00 ± 0.55
same,Cell Cycle Distribution S,[4]; 10 μM,27.05 ± 2.60
same,Cell Cycle Distribution G0/G1,[4]; 25 μM,56.32 ± 2.62
same,Cell Cycle Distribution G2/M,[4]; 25 μM,14.40 ± 2.38
same,Cell Cycle Distribution S,[4]; 25 μM,29.25 ± 0.18
same,Cell Cycle Distribution G0/G1,[4]; 50 μM,54.53 ± 0.30
same,Cell Cycle Distribution G2/M,[4]; 50 μM,15.69 ± 1.41
same,Cell Cycle Distribution S,[4]; 50 μM,29.79 ± 1.10
same,Cell Cycle Distribution G0/G1,[4]; 100 μM,55.68 ± 0.46
same,Cell Cycle Distribution G2/M,[4]; 100 μM,13.51 ± 0.17
same,Cell Cycle Distribution S,[4]; 100 μM,30.82 ± 0.29
same,AC50,[5]; Homo sapiens,> 100 µM
same,AC50,"[6]; Homo sapiens, COLO 205",> 100 µM
same,AC50,[7]; Homo sapiens,> 100 µM
"COc1ccc(-c2oc3c(OC)c(OC)c(OC)c(OC)c3c(=O)c2OC)cc1OC [D, 3,5,6,7,8,3,4-heptamethoxyflavone, reference compound]",Cell Cycle Distribution G0/G1,[1]; 5 μM,67.79 ± 0.17
same,Cell Cycle Distribution G2/M,[1]; 5 μM,7.56 ± 0.23
same,Cell Cycle Distribution S,[1]; 5 μM,24.66 ± 0.06
same,Cell Cycle Distribution G0/G1,[1]; 10 μM,57.61 ± 0.69
same,Cell Cycle Distribution G2/M,[1]; 10 μM,10.41 ± 0.45
same,Cell Cycle Distribution S,[1]; 10 μM,30.98 ± 1.18
same,Cell Cycle Distribution G0/G1,[1]; 25 μM,76.11 ± 1.56
same,Cell Cycle Distribution G2/M,[1]; 25 μM,9.04 ± 2.77
same,Cell Cycle Distribution S,[1]; 25 μM,14.89 ± 1.21
same,Cell Cycle Distribution G0/G1,[1]; 50 μM,77.31 ± 2.82
same,Cell Cycle Distribution G2/M,[1]; 50 μM,12.21 ± 0.74
same,Cell Cycle Distribution S,[1]; 50 μM,20.49 ± 2.09
same,Cell Cycle Distribution G0/G1,[1]; 100 μM,80.66 ± 0.01
same,Cell Cycle Distribution G2/M,[1]; 100 μM,3.79 ± 0.43
same,Cell Cycle Distribution S,[1]; 100 μM,15.57 ± 0.43
same,"Cell cycle arrest, in words","[1]; 5-100 μM, 24 h exposure",significant accumulation of cells in G1 phase
same,Cell Cycle Distribution G0/G1,[2]; 5 μM,50.66 ± 1.20
same,Cell Cycle Distribution G2/M,[2]; 5 μM,4.88 ± 0.49
same,Cell Cycle Distribution S,[2]; 5 μM,44.46 ± 0.49
same,Cell Cycle Distribution G0/G1,[2]; 10 μM,52.79 ± 0.99
same,Cell Cycle Distribution G2/M,[2]; 10 μM,5.09 ± 0.35
same,Cell Cycle Distribution S,[2]; 10 μM,42.12 ± 0.49
same,Cell Cycle Distribution G0/G1,[2]; 25 μM,57.63 ± 0.14
same,Cell Cycle Distribution G2/M,[2]; 25 μM,0.09 ± 0.71
same,Cell Cycle Distribution S,[2]; 25 μM,42.28 ± 0.57
same,Cell Cycle Distribution G0/G1,[2]; 50 μM,80.79 ± 0.71
same,Cell Cycle Distribution G2/M,[2]; 50 μM,0.21 ± 0.42
same,Cell Cycle Distribution S,[2]; 50 μM,19.00 ± 0.78
same,Cell Cycle Distribution G0/G1,[2]; 100 μM,84.06 ± 0.57
same,Cell Cycle Distribution G2/M,[2]; 100 μM,0.47 ± 0.21
same,Cell Cycle Distribution S,[2]; 100 μM,15.47 ± 1.06
same,"Cell cycle arrest, in words",[2]; 25-100 μM,significant G1 arrest
same,Cell Cycle Distribution G0/G1,[3]; 5 μM,60.81 ± 0.62
same,Cell Cycle Distribution G2/M,[3]; 5 μM,0.04 ± 0.05
same,Cell Cycle Distribution S,[3]; 5 μM,39.16 ± 0.67
same,Cell Cycle Distribution G0/G1,[3]; 10 μM,60.58 ± 0.57
same,Cell Cycle Distribution G2/M,[3]; 10 μM,0.40 ± 0.04
same,Cell Cycle Distribution S,[3]; 10 μM,39.02 ± 0.61
same,Cell Cycle Distribution G0/G1,[3]; 25 μM,61.91 ± 0.35
same,Cell Cycle Distribution G2/M,[3]; 25 μM,9.28 ± 0.59
same,Cell Cycle Distribution S,[3]; 25 μM,28.82 ± 0.23
same,Cell Cycle Distribution G0/G1,[3]; 50 μM,68.87 ± 1.53
same,Cell Cycle Distribution G2/M,[3]; 50 μM,6.10 ± 2.64
same,Cell Cycle Distribution S,[3]; 50 μM,25.03 ± 1.12
same,Cell Cycle Distribution G0/G1,[3]; 100 μM,75.17 ± 0.05
same,Cell Cycle Distribution G2/M,[3]; 100 μM,5.72 ± 0.64
same,Cell Cycle Distribution S,[3]; 100 μM,19.12 ± 0.69
same,Cell Cycle Distribution G0/G1,[4]; 5 μM,37.6 ± 0.92
same,Cell Cycle Distribution G2/M,[4]; 5 μM,0.4 ± 0.57
same,Cell Cycle Distribution S,[4]; 5 μM,62.4 ± 0.85
same,Cell Cycle Distribution G0/G1,[4]; 10 μM,44.2 ± 0.14
same,Cell Cycle Distribution G2/M,[4]; 10 μM,1.3 ± 0.42
same,Cell Cycle Distribution S,[4]; 10 μM,55.2 ± 0.42
same,Cell Cycle Distribution G0/G1,[4]; 25 μM,46.6 ± 0.35
same,Cell Cycle Distribution G2/M,[4]; 25 μM,4.7 ± 0.14
same,Cell Cycle Distribution S,[4]; 25 μM,48.8 ± 0.42
same,Cell Cycle Distribution G0/G1,[4]; 50 μM,48.0 ± 0.14
same,Cell Cycle Distribution G2/M,[4]; 50 μM,6.9 ± 0.42
same,Cell Cycle Distribution S,[4]; 50 μM,45.7 ± 0.35
same,Cell Cycle Distribution G0/G1,[4]; 100 μM,63.2 ± 0.78
same,Cell Cycle Distribution G2/M,[4]; 100 μM,4.0 ± 0.14
same,Cell Cycle Distribution S,[4]; 100 μM,33.0 ± 0.49
same,AC50,[5],> 100 µM
same,AC50,[6],> 100 µM
same,AC50,[7],> 100 µM
